pIC50: −log10 of the molar value.

Consider one compound from US20070093515A1, “Phosphodiesterase 10 inhibitors” (priority 2005, published 2007).

This test addresses T1, mPDE10A7 (Mus musculus, UniProt Q8CA95).
T1 sequence (Q8CA95 446-763 limits assumed): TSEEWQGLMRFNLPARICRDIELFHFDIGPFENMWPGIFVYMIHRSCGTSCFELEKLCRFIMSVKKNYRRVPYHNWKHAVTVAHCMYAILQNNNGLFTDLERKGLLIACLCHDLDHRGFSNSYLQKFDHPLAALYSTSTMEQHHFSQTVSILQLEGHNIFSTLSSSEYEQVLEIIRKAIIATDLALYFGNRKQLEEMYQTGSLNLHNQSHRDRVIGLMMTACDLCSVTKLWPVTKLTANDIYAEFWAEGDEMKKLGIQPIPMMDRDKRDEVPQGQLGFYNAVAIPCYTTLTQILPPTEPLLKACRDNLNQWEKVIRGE
The test can be described thus: mPDE10A7 enzyme inhibition (IMAP fluorescence polarization, fluorescein labeled cAMP or cGMP). Format: biochemical. As for the experimental part: mPDE10A7 Enzyme Activity and Inhibition
To analyze the enzyme activity, 5 μL of serial diluted mPDE10A7 containing lysate were incubated with equal volumes of diluted (100-fold) fluorescein labeled cAMP or cGMP for 30 minutes in MDC HE 96-well assay plates at room temperature. Both the enzyme and the substrates were diluted in the following assay buffer: Tris/HCl (pH 8.0) 50 mM, MgCl2 5 mM, 2-mercaptoethanol 4 mM, BSA 0.33 mg/mL. After incubation, the reaction was stopped by adding 20 μL of diluted (400-fold) binding reagents and was incubated for an hour at room temperature. The plates were counted in an Analyst GT (Molecular Devices) for fluorescence polarization. An IMAP Assay kit (Molecular Device) was used to assess enzyme properties of mmPDE10A7. Data were analyzed with SoftMax Pro.
To check the inhibition profile, 10 μL of serial diluted compounds were incubated with 30 μl of diluted PDE enzymes in a 96-well polystyrene assay plate for 30 minutes at room temperature. After incubation, 5 μL of the compound-enzyme mixture were aliquoted into a MDC HE black plate, mixed with 5 μl of 100-fold diluted fluorescein labeled substrates (cAMP or cGMP), and incubated for 30 minutes at room temperature. The reaction was stopped by adding 20 μL of diluted binding reagents and counted in an Analyst GT for fluorescence polarization. The data were analyzed with SoftMax Pro.
Background: Polarisation of emitted light reports the rotation of a fluorescent probe.

In the case of `COCCOc1cccc2c1CCN(c1ncnc3cc(OC)c(OC)cc13)C2=O` [2-(6,7-dimethoxyquinazolin-4-yl)-5-(2-methoxyethoxy)-3,4-dihydroisoquinoline-1 (2H)-one], the pIC50 (as a rule, the negative decadic logarithm of the IC50, by convention in mol/L) was 6.66.
